Common to all, as to type: cell-based, human
For test [1], the system named is HLA-class II molecules (HLA-DR, -DQ, -DP). Briefly: HLA restriction of PBMC proliferating in response to GPIIIa peptides (blocking antibodies). The following applies: PBMC from four AITP patients. How it is done:
To determine the HLA Class II restriction of proliferating T cells, […] anti-DR, anti-DQ or anti-DP blocking monoclonal antibodies (Pharmingen, Oxon, UK) were added to replicate cultures before stimulation.
Dominant peptides 2(aa6-20), 47 (aa361-375), 53 (aa421-435) and 82 (aa711-725) were selected for these experiments and used to stimulate PBMC from four AITP patients, in the presence or absence of anti-DP, -DQ or DR. Representative results from one patient are illustrated in FIG. 7.

The subject of another test is PBMC from AITP patients. Briefly: T cell proliferation assay, PBMC from AITP patients stimulated with GPIIIa peptides. The following applies: for PBMC proliferation in serial samples: patient AITP22, three occasions over 56 weeks (presentation, 44 weeks, 56 weeks); for AITP Patients with PBMC Response to Peptide, No High Affinity DR Expressed: patients not expressing an HLA-DR type predicted to bind the peptide with high affinity; for AITP Patients with PBMC Response to Peptide, High Affinity DR Expressed: patients expressing an HLA-DR type predicted to bind the peptide with high affinity. On the set-up: PBMC proliferation to control recall antigen or mitogen: dose or concentration left out as unconfirmed. An excerpt:
(§1) The human platelet membrane GPIIIa amino acid sequence (Genebank Accession no: M35999) was synthesized (Pepceuticals, Nottingham, UK) as a complete panel of 86 15-mer peptides, overlapping by 5-10 amino acids (Table 3). Peptide purity was monitored by amino acid analysis and mass spectrometry as reported previously by Barker R N et al in Blood 1997; 90:2701-2715, Scott L et al in Blood 2000; 96:4011-4019 and Cairns L S et al in J Am Soc Nephrol 2003; 14:2801-2812. The peptides were used for stimulation of T cells at the previously determined optimum concentration of […] in culture.
(§2) The antigen mycobacterial purified protein derivative (PPD) (Statens Serumintitut, Denmark) was added to cultures at […] to stimulate positive control recall T cell responses. Concanavalin A (Con A) (Sigma, Poole, Dorset, UK) was used at […] as a positive control T cell mitogen.
Mononuclear cells were recovered from anti-coagulated samples of peripheral blood from AITP patients and control donors by density gradient centrifugation (Lymphoprep; Nycomed, Denmark). Cell viability determined by trypan blue exclusion was greater than 90% in all samples.
Assays of T cell proliferation were carried out, as described by Scott L et al in Blood 2000; 96:4011-4019, Cairns L S et al in J Am Soc Nephrol 2003; 14:2801-2812 and Sukati H et al in Transfusion 2005; 45:1165-1177, under culture conditions designed to favor responses by previously activated T cells, rather than primary responses. Briefly, PBMC were cultured at 1.25×10^6 cells per mL in Alpha Modification of Eagle's Medium (Sigma, Poole, Dorset, UK) supplemented with 5% autologous serum. Synthetic GPIIIa peptides or control stimuli were added to cultures, which were incubated at 37° C. in a humidified atmosphere of 95% air and 5% CO2. T cell proliferation was estimated from the incorporation of 3H-thymidine in triplicate […] samples withdrawn from the cultures 5 days after stimulation, when recall responses peak. Results are presented either as the mean counts per minute (CPM)±SD of the triplicate samples, or as a stimulation index (SI) expressing the ratio of mean CPM in stimulated versus unstimulated control cultures. An SI>3 is interpreted as a positive response.

Test [2] deals with PBMC from healthy control donors. Briefly: T cell proliferation assay, PBMC from healthy control donors.
Source text: as §1, §2
Mononuclear cells were recovered from anti-coagulated samples of peripheral blood from AITP patients and control donors by density gradient centrifugation (Lymphoprep; Nycomed, Denmark). Cell viability determined by trypan blue exclusion was greater than 90% in all samples. […]

“Also recorded” adds a separate entry of the source.

As to “ALLIWKLLITIHDRK (listed as Homo sapiens) [peptide 82, GPIIIa residues 711-725]”, in test [1], the “blocking of peptide-induced proliferation by anti-DP, -DQ or -DR” value (shortened to “blocking”) was “blocked by at least one of the antibodies”. Besides, in the test with PBMC from AITP patients, the “PBMC proliferation in serial samples” value is recorded as “initially absent but appeared at later time points” and the “AITP Patients with PBMC Response to Peptide, No High Affinity DR Expressed” value (“AITP Patients … No High Affinity DR Expressed” for short) is given as “AITP12”. Also, the “stimulation of PBMC from control donors” value in test [2] was “only dominant sequence to induce proliferation by Th cells from control donors; also recorded: more than one control donor”.

For “CECDDFSCVRYKGEM (listed as Homo sapiens) [compound 63, GPIIIa residues 521-535]”, in the test with PBMC from AITP patients (PBMC from patient AITP26), the “Stimulatory Peptides (SI > 3)” value is over 63.

As for “Concanavalin A [Con A, reference compound]”, the “PBMC proliferation to control recall antigen or mitogen” value in the test with PBMC from AITP patients (PBMC from all patients and control donors) is on record as “proliferated normally”.

Regarding “DDCVVRFQYYEDSSG (listed as Homo sapiens) [peptide 77, GPIIIa residues 661-675]”, in the test with PBMC from AITP patients, the “PBMC proliferation in serial samples” value is on record as “seen only in the second sample”; the “AITP Patients with PBMC Response to Peptide, High Affinity DR Expressed” value is reported as “AITP11,; also recorded: AITP16,; also recorded: AITP22”; the “AITP Patients … No High Affinity DR Expressed” value is reported as “AITP2,; also recorded: AITP8”.

Take “DLPEELSLSFNATCL (listed as Homo sapiens) [compound 47, GPIIIa residues 361-375]”: in test [1], the “blocking” value is listed as “blocked by at least one of the antibodies”. For the same substance, in the test on PBMC from AITP patients, the “PBMC proliferation in serial samples” value is on record as “initially absent but appeared at later time points” and the “AITP Patients with PBMC Response to Peptide, High Affinity DR Expressed” value is listed as “None”.

On to “FKDSLIVQVTFDCDC (listed as Homo sapiens) [compound 53, GPIIIa residues 421-435]”, for which the “blocking” value in test [1] was “blocked by at least one of the antibodies”. In the test with PBMC from AITP patients, the “PBMC proliferation in serial samples” value is “initially absent but appeared at later time points”; the “AITP Patients with PBMC Response to Peptide, High Affinity DR Expressed” value is on record as “AITP11,; also recorded: AITP-12,; also recorded: AITP18,; also recorded: AITP20”; the “AITP Patients … No High Affinity DR Expressed” value is listed as “AITP1,; also recorded: AITP8,; also recorded: AITP9,; also recorded: AITP10,; also recorded: AITP22,; also recorded: AITP24”.

As for “GVLSMDSSNVLQLIV (listed as Homo sapiens) [compound 44, GPIIIa residues 331-345]”, in the test with PBMC from AITP patients, the “AITP Patients with PBMC Response to Peptide, High Affinity DR Expressed” value is on record as “AITP8,; also recorded: AITP24” and the “AITP Patients … No High Affinity DR Expressed” value is given as “AITP1,; also recorded: AITP3,; also recorded: AITP10,; also recorded: AITP18,; also recorded: AITP21,”.

For “PGSYGDTCEKCPTCP (listed as Homo sapiens) [compound 70, GPIIIa residues 591-605]”, in the test with PBMC from AITP patients, the “AITP Patients with PBMC Response to Peptide, High Affinity DR Expressed” value is listed as “None” and the “AITP Patients … No High Affinity DR Expressed” value is on record as “AITP2,; also recorded: AITP7,; also recorded: AITP15,; also recorded: AITP20,; also recorded: AITP24”.

For “TTRGVSSCQQCLAVS (listed as Homo sapiens) [peptide 2, GPIIIa residues 6-20]”, the “blocking” value in test [1] is listed as “blocked by at least one of the antibodies”. For the same substance, in the test on PBMC from AITP patients, the “PBMC proliferation in serial samples” value was “elicited proliferation from all samples” and the “AITP Patients with PBMC Response to Peptide, High Affinity DR Expressed” value is “None”.

(Values after US8398987B2, “Use of platelet glycopeptide IIIa epitopes in the treatment of immune thrombocytopenic purpura” (The University Court of the University of Aberdeen, priority 2007, dated 2013).)
